“And” between values parts separate entries of the source, which are not always exact repeats. Identical values can stand only once. Like-named read-outs stand apart in the source and are kept apart here. One block for each molecule: values may come before it. Where a SMILES comes first, the peptide text is derived from it. The star is where a group is joined. MeOSuc = COC(=O)CCC(=O)*; CH2Cl = ClC*
Columns and labels:
[1] = molecular target: T1, elastase (Homo sapiens, UniProt P08246); assay: Elastase inhibition assay; format: biochemical
T1 sequence (P08246 30-247): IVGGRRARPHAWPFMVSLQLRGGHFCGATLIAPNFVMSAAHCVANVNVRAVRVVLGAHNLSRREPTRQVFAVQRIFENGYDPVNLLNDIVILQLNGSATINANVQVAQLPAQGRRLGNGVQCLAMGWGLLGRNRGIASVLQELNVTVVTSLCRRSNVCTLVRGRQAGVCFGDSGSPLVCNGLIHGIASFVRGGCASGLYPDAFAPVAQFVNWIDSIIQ
Description: An elastase inhibition assay was performed to determine the elastase inhibition potential of an extract derived from sugar cane of the present disclosure. […] To measure elastase inhibitory potential of an extract derived from sugar cane of the present disclosure, a test sample of an extract derived from sugar cane was mixed and incubated with N-methoxysuccinyl-[…]-chloromethyl ketone in tris-HCl buffer for 15 min. Then elastase was added to the mixture and incubated for 15 min. […] [formula] Wherein, • Abssample+elastase=absorbance of test sample after incubation with elastase, • Abssample-elastase=absorbance of test sample before incubation with elastase, • Absblank+elastase=absorbance of blank after incubation with elastase, and • Absblank-elastase=absorbance of blank before incubation with elastase. N-methoxysuccinyl-[…]-chloromethyl ketone, a human leukocyte elastase (HLE) inhibitor, was used as an assay control.

[2] = system: collagenase; assay: Collagenase inhibition assay; format: biochemical
Description: A collagenase inhibition assay was performed to determine the collagenase inhibition of an extract derived from sugar cane of the present disclosure. Two batches (replicate 1 and replicate 2) of an extract derived from sugar cane of the present disclosure in a concentration of from 0.17 mg/mL to 350 mg/mL were tested for the ability to inhibit collagenase.
To measure collagenase inhibition potential of an extract derived from sugar cane of the present disclosure, a test sample of an extract derived from sugar cane was mixed sequentially with type-I collagen substrate and a diluted collagenase enzyme solution. After incubation for 30 minutes at 37° C., fluorescence was measured at excitation maxima of 495 nm and emission maxima of 515 nm. The inhibition percentage was calculated as follows.
[formula] Wherein, • Abssample=absorbance of the sample test, • Absblank=absorbance of the sample blank, • Abspositive control=absorbance of the positive control, and • Absnegative control=absorbance of the negative control.
1,10-phenanthroline was used as a positive assay control. Two batches (replicate 1 and replicate 2) of 1,10-phenanthroline in a concentration of from 1.7 μM to 3500 μM were used in the positive control assay. A negative control was performed with a buffer and a collagen substrate but without collagenase enzyme.

[3] = system: melanin production in human skin cells; assay: Cellular melanin pigmentation inhibition assay; format: cell-based; conditions: for EC50 / inhibition at 10 µM / inhibition at 0.31 µM / inhibition at 0.63 µM / inhibition at 1.25 µM / inhibition at 2.5 µM / inhibition at 5 µM: Homo sapiens
Description: A melanin production inhibition assay was performed to determine the potential of an extract derived from sugar cane of the present disclosure to inhibit melanin production.
To measure melanin pigmentation inhibition potential of an extract derived from sugar cane of the present disclosure, a test sample of an extract derived from sugar cane, in combination with theophylline, was added to a pre-incubated human skin cell culture. After incubating for 72 hours, the cells were washed with phosphate-buffered saline (PBS), lysed in 1 M NaOH, and boiled for 5 minutes to solubilize the melanin. The inhibition rates of the lysates were measured at 490 nm and expressed as a percentage relative to the value of the untreated control.
Chloroquine, a known melanin production inhibitor, was used as an assay control. Two batches (replicate 1 and replicate 2) of chloroquine in a concentration from 0.31 μM to 10 μM were used in the control assay.

[4] = molecular target: T2, telomerase (Homo sapiens, UniProt O14746); assay: Cellular telomerase activity assay (TRAP); format: cell-based; design: Telomerase activity Replicate 1 / Telomerase activity Replicate 2 / Telomerase activity Average: unit not given here
T2 construct: endogenous in cells
T2 sequence (O14746 whole entry): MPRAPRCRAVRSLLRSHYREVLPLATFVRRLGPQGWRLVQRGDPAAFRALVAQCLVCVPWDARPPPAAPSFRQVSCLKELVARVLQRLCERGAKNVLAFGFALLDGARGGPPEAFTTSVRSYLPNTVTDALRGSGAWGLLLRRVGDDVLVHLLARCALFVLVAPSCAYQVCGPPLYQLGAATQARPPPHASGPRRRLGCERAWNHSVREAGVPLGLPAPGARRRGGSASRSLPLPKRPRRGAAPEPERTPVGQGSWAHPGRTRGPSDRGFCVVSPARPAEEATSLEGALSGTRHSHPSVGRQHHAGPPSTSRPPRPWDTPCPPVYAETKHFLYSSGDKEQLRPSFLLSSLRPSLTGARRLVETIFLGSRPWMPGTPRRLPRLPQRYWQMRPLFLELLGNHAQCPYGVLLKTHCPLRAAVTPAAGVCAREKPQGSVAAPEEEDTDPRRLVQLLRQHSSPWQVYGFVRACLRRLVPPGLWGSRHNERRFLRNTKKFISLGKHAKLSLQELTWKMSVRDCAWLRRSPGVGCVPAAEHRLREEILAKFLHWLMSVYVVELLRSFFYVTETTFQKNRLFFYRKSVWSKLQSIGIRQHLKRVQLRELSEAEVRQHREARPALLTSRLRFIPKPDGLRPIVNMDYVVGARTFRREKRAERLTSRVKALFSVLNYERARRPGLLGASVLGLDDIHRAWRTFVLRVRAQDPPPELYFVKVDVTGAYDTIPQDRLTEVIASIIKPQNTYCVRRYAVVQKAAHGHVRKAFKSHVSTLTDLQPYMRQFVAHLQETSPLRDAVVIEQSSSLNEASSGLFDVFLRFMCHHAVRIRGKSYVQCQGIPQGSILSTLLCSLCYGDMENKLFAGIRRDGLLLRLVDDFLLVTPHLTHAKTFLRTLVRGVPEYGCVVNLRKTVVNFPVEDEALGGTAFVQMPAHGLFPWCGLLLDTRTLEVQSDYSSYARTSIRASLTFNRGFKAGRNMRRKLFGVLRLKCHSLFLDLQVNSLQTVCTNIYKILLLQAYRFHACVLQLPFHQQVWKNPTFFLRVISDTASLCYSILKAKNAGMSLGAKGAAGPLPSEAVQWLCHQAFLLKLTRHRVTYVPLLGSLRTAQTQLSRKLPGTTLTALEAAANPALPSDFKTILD
Source text: A cellular telomerase activity assay determines the ability of a test material to stimulate telomerase activity in human cells, which translates to the material's anti-aging potential. […]
In the cellular telomerase activity assay, telomerase activity level of human cells treated with (and without) a test sample of an extract derived from sugar cane of the present disclosure was monitored. Specifically, a telomeric repeat amplification protocol (TRAP assay) was used for the assay. The TRAP assay was divided into three main steps: extension, amplification, and detection of telomerase products. In the extension phase, telomeric sequences were added to the telomerase substrate, a non-telomeric oligonucleotide, through the action of telomerase present in the cell extract. The products of the extension step were amplified by PCR using specific primers and finally were analyzed via electrophoresis.
Cycloastragenol, a known telomerase activator, was used as an assay control. Two batches (replicate 1 and replicate 2) of cycloastragenol in a concentration from 0.06 μM to 3 μM were used in the control assay.

[5] = read-out: Inhibition (%) Average
[6] = read-out: Inhibition (%) Relicate 1
[7] = read-out: Inhibition (%) Replicate 2
[8] = read-out: Melanin inhibition (%) Average
[9] = read-out: Melanin inhibition (%) Replicate 1
[10] = read-out: Melanin inhibition (%) Replicate 2

Structure (SMILES): COC(=O)CCC(=O)NC(C)C(=O)NC(C)C(=O)N1CCCC1C(=O)NC(C(=O)CCl)C(C)C (stereo not drawn) [N-methoxysuccinyl-Ala-Ala-Pro-Val-chloromethyl ketone] (MeOSuc-AAPV-CH2Cl; configuration not given here)
Concentration inducing the maximum inhibition (elastase) [1]: 250 µM
inhibition at 250 µM ([1]; Conc. 250.00 uM, read-out: Inhibition (%) Average): 87.7%
inhibition at 250 µM ([1]; Conc. 250.00 uM, read-out: Inhibition (%) Relicate 1): 87.6%
inhibition at 250 µM ([1]; Conc. 250.00 uM, read-out: Inhibition (%) Replicate 2): 87.8%
inhibition at 0.12 µM [1, 5]: 10.3%
inhibition at 0.24 µM [1, 5]: 18.2%
inhibition at 0.49 µM [1, 5]: 30.3%
inhibition at 0.98 µM [1, 5]: 45.7%
inhibition at 1.95 µM [1, 5]: 59.2%
inhibition at 3.91 µM [1, 5]: 68.7%
inhibition at 7.81 µM [1, 5]: 76.3%
inhibition at 15.63 µM [1, 5]: 81%
inhibition at 31.25 µM [1, 5]: 84.4%
inhibition at 62.5 µM [1, 5]: 86.1%
inhibition at 125 µM [1, 5]: 87.2%
inhibition at 0.12 µM [1, 6]: 10.1%
inhibition at 0.24 µM [1, 6]: 18.3%
inhibition at 0.49 µM [1, 6]: 29.9%
inhibition at 0.98 µM [1, 6]: 45.3%
inhibition at 1.95 µM [1, 6]: 58.8%
inhibition at 3.91 µM [1, 6]: 68.5%
inhibition at 7.81 µM [1, 6]: 76.2%
inhibition at 15.63 µM [1, 6]: 81.1%
inhibition at 31.25 µM [1, 6]: 84.3%
inhibition at 62.5 µM [1, 6]: 86%
inhibition at 125 µM [1, 6]: 87.1%
inhibition at 0.12 µM [1, 7]: 10.5%
inhibition at 0.24 µM [1, 7]: 18.2%
inhibition at 0.49 µM [1, 7]: 30.6%
inhibition at 0.98 µM [1, 7]: 46.1%
inhibition at 1.95 µM [1, 7]: 59.6%
inhibition at 3.91 µM [1, 7]: 69%
inhibition at 7.81 µM [1, 7]: 76.3%
inhibition at 15.63 µM [1, 7]: 80.8%
inhibition at 31.25 µM [1, 7]: 84.5%
inhibition at 62.5 µM [1, 7]: 86.2%
inhibition at 125 µM [1, 7]: 87.3%
inhibition at 250 µM ([1]; read-out: Maximum inhibition achieved (elastase)): 87.7%

Structure (SMILES): c1cnc2c(c1)ccc1cccnc12 [1,10-phenanthroline]
Concentration inducing the maximum inhibition (collagenase) [2]: 3.50 mM
Inhibition (%) Average ([2]; 1.71 uM): −29.05%
Inhibition (%) Relicate 1 ([2]; 1.71 uM): −29.63%
Inhibition (%) Replicate 2 ([2]; 1.71 uM): −28.47%
Inhibition (%) Average ([2]; 3.42 uM): −25.76%
Inhibition (%) Relicate 1 ([2]; 3.42 uM): −27.08%
Inhibition (%) Replicate 2 ([2]; 3.42 uM): −24.45%
Inhibition (%) Average ([2]; 6.84 uM): −21.65%
Inhibition (%) Relicate 1 ([2]; 6.84 uM): −22.85%
Inhibition (%) Replicate 2 ([2]; 6.84 uM): −20.46%
Inhibition (%) Average ([2]; 13.67 uM): −6.70%
Inhibition (%) Relicate 1 ([2]; 13.67 uM): −7.40%
Inhibition (%) Replicate 2 ([2]; 13.67 uM): −6.00%
Inhibition (%) Average ([2]; 27.34 uM): 24.95%
Inhibition (%) Relicate 1 ([2]; 27.34 uM): 25.64%
Inhibition (%) Replicate 2 ([2]; 27.34 uM): 24.25%
Inhibition (%) Average ([2]; 54.69 uM): 58.50%
Inhibition (%) Relicate 1 ([2]; 54.69 uM): 57.26%
Inhibition (%) Replicate 2 ([2]; 54.69 uM): 59.74%
Inhibition (%) Average ([2]; 109.38 uM): 71.66%
Inhibition (%) Relicate 1 ([2]; 109.38 uM): 71.77%
Inhibition (%) Replicate 2 ([2]; 109.38 uM): 71.54%
Inhibition (%) Average ([2]; 218.75 uM): 75.46%
Inhibition (%) Relicate 1 ([2]; 218.75 uM): 75.14%
Inhibition (%) Replicate 2 ([2]; 218.75 uM): 75.78%
Inhibition (%) Average ([2]; 437.50 uM): 77.01%
Inhibition (%) Relicate 1 ([2]; 437.50 uM): 76.63%
Inhibition (%) Replicate 2 ([2]; 437.50 uM): 77.39%
Inhibition (%) Average ([2]; 875.00 uM): 77.37%
Inhibition (%) Relicate 1 ([2]; 875.00 uM): 77.01%
Inhibition (%) Replicate 2 ([2]; 875.00 uM): 77.72%
Inhibition (%) Average ([2]; 1750.00 uM): 77.27%
Inhibition (%) Relicate 1 ([2]; 1750.00 uM): 76.83%
Inhibition (%) Replicate 2 ([2]; 1750.00 uM): 77.71%
Inhibition (%) Average ([2]; 3500.00 uM): 78.99%
Inhibition (%) Relicate 1 ([2]; 3500.00 uM): 79.75%
Inhibition (%) Replicate 2 ([2]; 3500.00 uM): 78.24%
Maximum inhibition achieved (collagenase) ([2]; at 3.50 mM): 78.99%
EC50 ([2]; effective concentration at 50% of maximal inhibition): 26.9 µM
EC50 (collagenase inhibition) ([2]; same value in mass units): (4.84 μg/mL)

EC50 [3]: 0.74 µg/mL and 1.43 µM
EC50 ([3]; 72 h, read-out: EC50 (melanin production inhibition)): 1.43 µM
Structure (SMILES): CCN(CC)CCCC(C)Nc1ccnc2cc(Cl)ccc12 (stereo not drawn) [chloroquine, Chloroquine]
Concentration inducing the maximum inhibition [3]: 10 µM
inhibition at 10 µM ([3]; read-out: Maximum inhibition achieved): 88.1%
inhibition at 0.31 µM [3, 8]: 0.92%
inhibition at 0.63 µM [3, 8]: 16.1%
inhibition at 1.25 µM [3, 8]: 34.3%
inhibition at 2.5 µM [3, 8]: 76.1%
inhibition at 5 µM [3, 8]: 83.1%
inhibition at 10 µM [3, 8]: 88.1%
inhibition at 0.31 µM [3, 9]: 1.77%
inhibition at 0.63 µM [3, 9]: 15.5%
inhibition at 1.25 µM [3, 9]: 36.5%
inhibition at 2.5 µM [3, 9]: 76.6%
inhibition at 5 µM [3, 9]: 79.8%
inhibition at 10 µM [3, 9]: 85.7%
inhibition at 0.31 µM [3, 10]: 0.06%
inhibition at 0.63 µM [3, 10]: 16.7%
inhibition at 1.25 µM [3, 10]: 32.1%
inhibition at 2.5 µM [3, 10]: 75.6%
inhibition at 5 µM [3, 10]: 86.4%
inhibition at 10 µM [3, 10]: 90.5%

Structure (SMILES): CC(C)(O)[C@@H]1CC[C@](C)([C@H]2[C@@H](O)C[C@@]3(C)[C@@H]4C[C@H](O)[C@H]5C(C)(C)[C@@H](O)CC[C@@]56C[C@@]46CC[C@]23C)O1 [Cycloastragenol]
Telomerase activity Average ([4]; 0.06 μM): 1387.33
Telomerase activity Replicate 1 ([4]; 0.06 μM): 925.83
Telomerase activity Replicate 2 ([4]; 0.06 μM): 1848.83
Telomerase activity Average ([4]; 0.13 μM): 1916.83
Telomerase activity Replicate 1 ([4]; 0.13 μM): 2080.83
Telomerase activity Replicate 2 ([4]; 0.13 μM): 1752.83
Telomerase activity Average ([4]; 0.25 μM): 5523.83
Telomerase activity Replicate 1 ([4]; 0.25 μM): 5415.83
Telomerase activity Replicate 2 ([4]; 0.25 μM): 5631.83
Telomerase activity Average ([4]; 0.50 μM): 7501.33
Telomerase activity Replicate 1 ([4]; 0.50 μM): 7834.83
Telomerase activity Replicate 2 ([4]; 0.50 μM): 7167.83
Telomerase activity Average ([4]; 1.00 μM): 15556.33
Telomerase activity Replicate 1 ([4]; 1.00 μM): 15590.83
Telomerase activity Replicate 2 ([4]; 1.00 μM): 15521.83
Telomerase activity Average ([4]; 3.00 μM): 21909.33
Telomerase activity Replicate 1 ([4]; 3.00 μM): 20995.83
Telomerase activity Replicate 2 ([4]; 3.00 μM): 22822.83
EC50 ([4]; half-maximal telomerase activation, human cells): 0.79 µM
EC50 (telomerase activation) ([4]; same value in mass units): (0.39 μg/mL

Source: patent publication US12370232B2, “Use of polyphenol containing sugar cane extracts for preventing, improving or treating a skin condition” (priority 2017, dated 2025)
